≈ marks a conversion by molar mass, not a printed value.
Tests used:
Type in all cases: functional
Staphylococcus [1] = assay: Antibacterial activity against methicillin-resistant coagulase-negative Staphylococcus clinical isolate after 18 hrs by agar dilution method
Staphylococcus [2] = assay: Antibacterial activity against methicillin-susceptible coagulase-negative Staphylococcus clinical isolate after 18 hrs by agar dilution method
Staphylococcus aureus [3] = assay: Antibacterial activity against methicillin-resistant Staphylococcus aureus clinical isolate after 18 hrs by agar dilution method; details: for MIC: Staphylococcus aureus, 18 h
Staphylococcus aureus [4] = assay: Antibacterial activity against methicillin-susceptible Staphylococcus aureus clinical isolate after 18 hrs by agar dilution method
Staphylococcus aureus [5] = assay: Antibacterial activity against Staphylococcus aureus ATCC 25923 after 18 hrs by agar dilution method in presence of 50% human plasma; details: ATCC 25923, Plasma
Staphylococcus aureus [6] = assay: Antibacterial activity against Staphylococcus aureus ATCC 25923 after 18 hrs by agar dilution method; details: for MIC: Staphylococcus aureus, ATCC 25923, 18 h
Moraxella catarrhalis = assay: Antibacterial activity against Moraxella catarrhalis clinical isolate after 18 hrs by agar dilution method
Haemophilus influenzae = assay: Antibacterial activity against Haemophilus influenzae clinical isolate after 18 hrs by agar dilution method
Enterococcus [7] = assay: Antibacterial activity against vancomycin-resistant Enterococcus after 18 hrs by agar dilution method
Enterococcus [8] = assay: Antibacterial activity against vancomycin-sensitive Enterococcus after 18 hrs by agar dilution method
Streptococcus pneumoniae = assay: Antibacterial activity against penicillin-resistant Streptococcus pneumoniae after 18 hrs by agar dilution method
Escherichia coli = assay: Antibacterial activity against Escherichia coli ATCC 25922 after 18 hrs by agar dilution method; details: ATCC 25922, 18 h

SMILES | MIC (Staphylococcus [1]) [µg/mL] | MIC (Staphylococcus [2]) [µg/mL] | MIC (Staphylococcus aureus [3]) [µg/mL] | MIC (Staphylococcus aureus [4]) [µg/mL] | MIC (Staphylococcus aureus [5]) [µg/mL] | MIC (Staphylococcus aureus [6]) [µg/mL] | MIC (Moraxella catarrhalis) [µg/mL] | MIC (Haemophilus influenzae) [µg/mL] | MIC (Enterococcus [7]) [µg/mL] | MIC (Enterococcus [8]) [µg/mL] | MIC (Streptococcus pneumoniae) [µg/mL] | MIC (Escherichia coli) [µg/mL] | -logMIC (Staphylococcus aureus [6]) | -logMIC (Staphylococcus aureus [3])
O=C1O[C@@H](Cn2ccnn2)CN1c1ccc(N2CCOCC2)c(F)c1 | 0.5 (≈ 1.44 µM) | 0.5 (≈ 1.44 µM) | 0.5 (≈ 1.44 µM) | 0.5 (≈ 1.44 µM) | 1 | 1 (≈ 2.88 µM) | ≥ 8 | ≥ 8 | 1 (≈ 2.88 µM) | 0.5 (≈ 1.44 µM) | 0.5 (≈ 1.44 µM) | ≥ 8 |  | 
CCCCCCCCCCC(=O)N1CCN(c2ccc(N3C[C@H](Cn4ccnn4)OC3=O)cc2F)CC1 |  | > 16 |  | > 16 | > 16 | > 16 | ≥ 8 | ≥ 8 |  | > 16 | > 16 | ≥ 8 | 1.51 | 
O=C(CC1CC2CCC1C2)N1CCN(c2ccc(N3C[C@H](Cn4ccnn4)OC3=O)cc2F)CC1 (some centres undefined) | 2 (≈ 4.14 µM) | 2 (≈ 4.14 µM) | 2 (≈ 4.14 µM) | 2 (≈ 4.14 µM) | > 16 | 4 (≈ 8.29 µM) | ≥ 8 | ≥ 8 | 4 (≈ 8.29 µM) | 2 (≈ 4.14 µM) | 4 (≈ 8.29 µM) | ≥ 8 | 2.08 | 2.38
CCC(=O)N1CCN(c2ccc(N3C[C@H](Cn4ccnn4)OC3=O)cc2F)CC1 | 1 (≈ 2.48 µM) | 0.12 (≈ 0.298 µM) | 1 (≈ 2.48 µM) | 1 (≈ 2.48 µM) | 1 | 1 (≈ 2.48 µM) | ≥ 8 | ≥ 8 | 1 (≈ 2.48 µM) | 0.5 (≈ 1.24 µM) | 1 (≈ 2.48 µM) | ≥ 8 | 2.6 | 2.6
CC(=O)N1CCN(c2ccc(N3C[C@H](Cn4ccnn4)OC3=O)cc2F)CC1 | 0.25 (≈ 0.644 µM) | 0.25 (≈ 0.644 µM) | 0.25 (≈ 0.644 µM) | 0.5 (≈ 1.29 µM) | 1 | 1 (≈ 2.57 µM) | ≥ 8 | ≥ 8 | 0.25 (≈ 0.644 µM) | 0.5 (≈ 1.29 µM) | 0.5 (≈ 1.29 µM) | ≥ 8 | 2.59 | 3.19
CCCCCCCC(=O)N1CCN(c2ccc(N3C[C@H](Cn4ccnn4)OC3=O)cc2F)CC1 | 2 (≈ 4.23 µM) | 2 (≈ 4.23 µM) | 2 (≈ 4.23 µM) | 4 (≈ 8.46 µM) | > 16 | 8 (≈ 16.9 µM) | ≥ 8 | ≥ 8 | 4 (≈ 8.46 µM) | 4 (≈ 8.46 µM) | > 16 | ≥ 8 | 2.07 | 2.37
CCCCCCC(=O)N1CCN(c2ccc(N3C[C@H](Cn4ccnn4)OC3=O)cc2F)CC1 | 2 (≈ 4.36 µM) | 1 (≈ 2.18 µM) | 2 (≈ 4.36 µM) | 2 (≈ 4.36 µM) | > 16 | 4 (≈ 8.72 µM) | ≥ 8 | ≥ 8 | 4 (≈ 8.72 µM) | 4 (≈ 8.72 µM) | 4 (≈ 8.72 µM) | ≥ 8 | 2.06 | 2.36
CC(C)C(=O)N1CCN(c2ccc(N3C[C@H](Cn4ccnn4)OC3=O)cc2F)CC1 | 1 (≈ 2.4 µM) | 1 (≈ 2.4 µM) | 1 (≈ 2.4 µM) | 1 (≈ 2.4 µM) | 2 | 2 (≈ 4.8 µM) | ≥ 8 | ≥ 8 | 1 (≈ 2.4 µM) | 1 (≈ 2.4 µM) | 0.5 (≈ 1.2 µM) | ≥ 8 | 2.32 | 2.62
O=C(C1CCCCC1)N1CCN(c2ccc(N3C[C@H](Cn4ccnn4)OC3=O)cc2F)CC1 | 1 (≈ 2.19 µM) | 1 (≈ 2.19 µM) | 1 (≈ 2.19 µM) | 1 (≈ 2.19 µM) | 4 | 4 (≈ 8.76 µM) | ≥ 8 | ≥ 8 | 1 (≈ 2.19 µM) | 1 (≈ 2.19 µM) | 0.5 (≈ 1.1 µM) | ≥ 8 | 2.06 | 2.66
CCCCCCCCCCCCCCCCCC(=O)N1CCN(c2ccc(N3C[C@H](Cn4ccnn4)OC3=O)cc2F)CC1 |  | > 16 |  | > 16 | > 16 | > 16 | ≥ 8 | ≥ 8 |  | > 16 | > 16 | ≥ 8 | 1.58 | 
CCCCCCCCCCCCCCCC(=O)N1CCN(c2ccc(N3C[C@H](Cn4ccnn4)OC3=O)cc2F)CC1 |  | > 16 |  | > 16 | > 16 | > 16 | ≥ 8 | ≥ 8 |  | > 16 | > 16 | ≥ 8 | 1.56 | 
CCCCCCCCCC(=O)N1CCN(c2ccc(N3C[C@H](Cn4ccnn4)OC3=O)cc2F)CC1 |  | > 16 |  | > 16 | > 16 | > 16 | ≥ 8 | ≥ 8 |  | > 16 | > 16 | ≥ 8 | 1.5 | 
O=C(C1CCCC1)N1CCN(c2ccc(N3C[C@H](Cn4ccnn4)OC3=O)cc2F)CC1 | 1 (≈ 2.26 µM) | 1 (≈ 2.26 µM) | 1 (≈ 2.26 µM) | 1 (≈ 2.26 µM) | 4 | 2 (≈ 4.52 µM) | ≥ 8 | ≥ 8 | 1 (≈ 2.26 µM) | 1 (≈ 2.26 µM) | 1 (≈ 2.26 µM) | ≥ 8 | 2.34 | 2.65
CCCCCCCCC(=O)N1CCN(c2ccc(N3C[C@H](Cn4ccnn4)OC3=O)cc2F)CC1 | 4 (≈ 8.22 µM) | 4 (≈ 8.22 µM) | 4 (≈ 8.22 µM) | 8 (≈ 16.4 µM) | > 16 | > 16 | ≥ 8 | ≥ 8 | 8 (≈ 16.4 µM) | 8 (≈ 16.4 µM) | > 16 | ≥ 8 | 1.78 | 2.09
CCCCCC(=O)N1CCN(c2ccc(N3C[C@H](Cn4ccnn4)OC3=O)cc2F)CC1 | 1 (≈ 2.25 µM) | 1 (≈ 2.25 µM) | 2 (≈ 4.5 µM) | 4 (≈ 9 µM) | > 16 | 4 (≈ 9 µM) | ≥ 8 | ≥ 8 | 4 (≈ 9 µM) | 4 (≈ 9 µM) | 2 (≈ 4.5 µM) | ≥ 8 | 2.05 | 2.35
CCCCCCCCCCCCCC(=O)N1CCN(c2ccc(N3C[C@H](Cn4ccnn4)OC3=O)cc2F)CC1 |  | > 16 |  | > 16 | > 16 | > 16 | ≥ 8 | ≥ 8 |  | > 16 | > 16 | ≥ 8 | 1.54 | 
CC(=O)NC[C@H]1CN(c2ccc(N3CCOCC3)c(F)c2)C(=O)O1 [LINEZOLID] | 1 (≈ 2.96 µM) | 0.25 (≈ 0.741 µM) | 0.5 (≈ 1.48 µM) | 1 (≈ 2.96 µM) |  |  | ≥ 8 | ≥ 8 | 2 (≈ 5.93 µM) | 0.5 (≈ 1.48 µM) |  | ≥ 8 |  | 
CN[C@H](CC(C)C)C(=O)N[C@H]1C(=O)N[C@@H](CC(N)=O)C(=O)N[C@H]2C(=O)N[C@H]3C(=O)N[C@H](C(=O)N[C@H](C(=O)O)c4cc(O)cc(O)c4-c4cc3ccc4O)[C@H](O)c3ccc(c(Cl)c3)Oc3cc2cc(c3O[C@@H]2O[C@H](CO)[C@@H](O)[C@H](O)[C@H]2O[C@H]2C[C@](C)(N)[C@H](O)[C@H](C)O2)Oc2ccc(cc2Cl)[C@H]1O [VANCOMYCIN] | 1 (≈ 0.69 µM) | 1 (≈ 0.69 µM) |  |  |  |  | ≥ 8 | ≥ 8 | > 64 | 0.25 (≈ 0.173 µM) | 0.5 (≈ 0.345 µM) | ≥ 8 |  | 

Reference: ChEMBL document CHEMBL1141677, “Synthesis and structure-antibacterial activity of triazolyl oxazolidinones containing long chain acyl moiety” (2008)
